Test results as given in ChEMBL document CHEMBL1201862, “PubChem BioAssay data set” (2004).
Calls of active or inactive are those of the source.

Key:
[1] = molecular target: Nonstructural protein 1 (Influenza A virus, UniProt Q194T2); format: functional, Influenza A virus (A/California/07/2009(H1N1))
[2] = molecular target: Ras and Rab interactor 1/Tyrosine-protein kinase ABL1 (Homo sapiens, UniProt P00519+Q13671); format: functional;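 note: biochemical TR-FRET dose-response test measuring inhibition of binding between Rin1 and Abl proteins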
Sequence of Ras and Rab interactor 1/Tyrosine-protein kinase ABL1 (P00519 whole entry): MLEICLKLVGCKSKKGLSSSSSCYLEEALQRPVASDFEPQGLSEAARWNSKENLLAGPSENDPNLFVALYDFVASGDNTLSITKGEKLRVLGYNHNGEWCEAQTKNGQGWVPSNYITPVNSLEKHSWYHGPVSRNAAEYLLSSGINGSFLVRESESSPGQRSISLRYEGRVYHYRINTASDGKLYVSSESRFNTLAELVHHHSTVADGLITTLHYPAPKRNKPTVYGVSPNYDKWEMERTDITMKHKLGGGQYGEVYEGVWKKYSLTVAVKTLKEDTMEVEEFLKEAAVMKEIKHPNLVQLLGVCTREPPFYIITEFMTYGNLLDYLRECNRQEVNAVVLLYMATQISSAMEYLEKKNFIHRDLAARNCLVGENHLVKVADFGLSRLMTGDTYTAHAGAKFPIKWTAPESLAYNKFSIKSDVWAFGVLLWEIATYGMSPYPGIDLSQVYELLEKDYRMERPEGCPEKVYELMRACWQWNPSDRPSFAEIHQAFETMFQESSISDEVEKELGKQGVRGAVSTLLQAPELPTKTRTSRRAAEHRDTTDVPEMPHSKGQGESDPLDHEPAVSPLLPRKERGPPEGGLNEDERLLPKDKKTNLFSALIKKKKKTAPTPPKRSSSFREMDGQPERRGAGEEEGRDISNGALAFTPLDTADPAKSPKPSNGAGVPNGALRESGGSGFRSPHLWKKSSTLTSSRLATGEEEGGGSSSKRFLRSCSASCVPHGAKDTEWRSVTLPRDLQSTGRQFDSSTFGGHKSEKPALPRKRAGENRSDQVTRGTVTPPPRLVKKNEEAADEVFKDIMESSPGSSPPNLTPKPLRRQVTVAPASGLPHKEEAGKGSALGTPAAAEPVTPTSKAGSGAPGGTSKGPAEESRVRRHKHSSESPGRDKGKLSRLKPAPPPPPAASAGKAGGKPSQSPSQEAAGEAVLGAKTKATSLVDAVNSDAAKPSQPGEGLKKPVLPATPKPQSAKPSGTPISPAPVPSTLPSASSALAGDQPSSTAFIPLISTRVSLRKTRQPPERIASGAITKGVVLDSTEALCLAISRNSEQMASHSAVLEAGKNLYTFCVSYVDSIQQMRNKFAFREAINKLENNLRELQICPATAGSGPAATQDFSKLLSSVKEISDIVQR
Sequence of Ras and Rab interactor 1/Tyrosine-protein kinase ABL1 (Q13671 whole entry): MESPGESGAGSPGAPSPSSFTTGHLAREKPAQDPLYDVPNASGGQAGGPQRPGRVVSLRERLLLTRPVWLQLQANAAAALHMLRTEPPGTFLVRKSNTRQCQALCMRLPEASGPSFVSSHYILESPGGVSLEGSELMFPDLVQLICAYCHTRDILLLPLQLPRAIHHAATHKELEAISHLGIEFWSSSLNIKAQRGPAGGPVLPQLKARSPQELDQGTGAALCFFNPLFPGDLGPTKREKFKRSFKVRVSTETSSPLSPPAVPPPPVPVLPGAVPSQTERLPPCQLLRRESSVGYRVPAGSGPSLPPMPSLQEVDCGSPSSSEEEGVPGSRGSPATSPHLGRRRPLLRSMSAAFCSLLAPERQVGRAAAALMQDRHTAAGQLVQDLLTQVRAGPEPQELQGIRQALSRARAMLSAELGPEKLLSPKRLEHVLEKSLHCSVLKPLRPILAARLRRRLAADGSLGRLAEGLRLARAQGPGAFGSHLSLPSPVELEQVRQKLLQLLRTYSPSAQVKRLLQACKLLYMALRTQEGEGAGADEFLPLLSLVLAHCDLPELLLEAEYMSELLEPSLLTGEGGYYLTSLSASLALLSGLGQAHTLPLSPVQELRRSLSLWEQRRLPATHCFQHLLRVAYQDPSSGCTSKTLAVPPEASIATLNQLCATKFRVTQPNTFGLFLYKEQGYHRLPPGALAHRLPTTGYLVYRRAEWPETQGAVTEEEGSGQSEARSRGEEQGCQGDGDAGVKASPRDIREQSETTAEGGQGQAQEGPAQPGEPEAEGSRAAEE

[3] = molecular target: T1, Histone-lysine N-methyltransferase NSD2 (Homo sapiens, UniProt O96028); format: biochemical
T1 sequence (O96028 whole entry): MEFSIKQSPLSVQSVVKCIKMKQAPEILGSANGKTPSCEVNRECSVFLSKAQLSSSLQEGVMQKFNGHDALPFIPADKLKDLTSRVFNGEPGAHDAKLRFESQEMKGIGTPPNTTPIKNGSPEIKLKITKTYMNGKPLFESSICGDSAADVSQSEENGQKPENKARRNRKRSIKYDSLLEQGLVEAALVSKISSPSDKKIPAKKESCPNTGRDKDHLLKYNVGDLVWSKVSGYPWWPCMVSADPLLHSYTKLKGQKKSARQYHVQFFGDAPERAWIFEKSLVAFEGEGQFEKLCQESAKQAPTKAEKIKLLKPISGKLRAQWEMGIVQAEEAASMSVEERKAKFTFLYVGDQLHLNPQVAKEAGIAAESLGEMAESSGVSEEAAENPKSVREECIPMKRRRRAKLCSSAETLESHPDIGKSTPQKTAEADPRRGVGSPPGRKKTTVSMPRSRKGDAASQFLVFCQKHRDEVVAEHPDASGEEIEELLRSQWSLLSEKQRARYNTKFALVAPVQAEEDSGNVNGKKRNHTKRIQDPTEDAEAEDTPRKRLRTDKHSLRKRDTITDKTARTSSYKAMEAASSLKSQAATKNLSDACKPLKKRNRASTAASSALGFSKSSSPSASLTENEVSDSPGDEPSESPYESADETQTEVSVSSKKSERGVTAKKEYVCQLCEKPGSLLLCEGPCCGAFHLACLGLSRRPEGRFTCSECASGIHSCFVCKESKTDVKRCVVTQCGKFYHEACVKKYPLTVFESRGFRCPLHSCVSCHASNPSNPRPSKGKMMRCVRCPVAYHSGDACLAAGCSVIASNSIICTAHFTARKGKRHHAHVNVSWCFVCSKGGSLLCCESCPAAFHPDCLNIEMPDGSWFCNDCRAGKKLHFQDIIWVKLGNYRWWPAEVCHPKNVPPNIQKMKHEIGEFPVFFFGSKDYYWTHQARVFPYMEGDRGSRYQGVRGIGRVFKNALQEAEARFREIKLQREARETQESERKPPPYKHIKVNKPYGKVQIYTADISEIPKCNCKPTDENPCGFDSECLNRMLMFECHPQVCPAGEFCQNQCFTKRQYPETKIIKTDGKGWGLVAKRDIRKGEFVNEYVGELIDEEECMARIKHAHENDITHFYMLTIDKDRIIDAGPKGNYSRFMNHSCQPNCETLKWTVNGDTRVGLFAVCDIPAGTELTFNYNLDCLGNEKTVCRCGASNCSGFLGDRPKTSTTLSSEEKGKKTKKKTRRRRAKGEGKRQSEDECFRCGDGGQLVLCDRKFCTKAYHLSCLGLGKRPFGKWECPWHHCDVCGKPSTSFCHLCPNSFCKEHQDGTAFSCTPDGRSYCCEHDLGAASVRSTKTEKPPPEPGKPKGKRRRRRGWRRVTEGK

[4] = molecular target: T2, High affinity choline transporter 1 (Homo sapiens, UniProt Q9GZV3); experiment: CHT inhibitors, dose response, cell-based, 5-point CRC, membrane potential dye (AID 504840); format: functional
T2 sequence (Q9GZV3 whole entry): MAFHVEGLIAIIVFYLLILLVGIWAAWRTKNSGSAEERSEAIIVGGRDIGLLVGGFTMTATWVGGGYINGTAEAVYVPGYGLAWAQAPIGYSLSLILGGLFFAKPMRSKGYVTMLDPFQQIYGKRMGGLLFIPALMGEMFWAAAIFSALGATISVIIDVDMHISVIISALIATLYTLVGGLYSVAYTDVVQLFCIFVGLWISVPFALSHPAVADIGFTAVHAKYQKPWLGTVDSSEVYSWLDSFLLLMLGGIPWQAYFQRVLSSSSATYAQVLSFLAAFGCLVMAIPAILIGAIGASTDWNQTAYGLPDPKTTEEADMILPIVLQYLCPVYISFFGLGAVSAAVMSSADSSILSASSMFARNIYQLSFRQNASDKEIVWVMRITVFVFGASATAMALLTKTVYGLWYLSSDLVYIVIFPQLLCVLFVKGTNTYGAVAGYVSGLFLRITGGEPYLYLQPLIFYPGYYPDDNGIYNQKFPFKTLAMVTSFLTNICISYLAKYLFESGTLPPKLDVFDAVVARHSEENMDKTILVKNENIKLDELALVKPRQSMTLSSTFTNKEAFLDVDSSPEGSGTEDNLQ

[5] = molecular target: T2, High affinity choline transporter 1; experiment: CHT inhibitors, dose response, cell-based, 10-point CRC, membrane potential dye (AID 588401); format: functional;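 note: membrane potential dye fluorescence of choline-evoked depolarization via CHT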
[6] = molecular target: Tyrosine-protein phosphatase non-receptor type 11 (Homo sapiens, UniProt Q06124); experiment: SHP2 phosphatase inhibition, dose response, selectivity assay for STEP inhibitor project, biochemical (AID 602367); format: functional; details: read-out: IC50_Mean
Sequence of Tyrosine-protein phosphatase non-receptor type 11 (Q06124 whole entry): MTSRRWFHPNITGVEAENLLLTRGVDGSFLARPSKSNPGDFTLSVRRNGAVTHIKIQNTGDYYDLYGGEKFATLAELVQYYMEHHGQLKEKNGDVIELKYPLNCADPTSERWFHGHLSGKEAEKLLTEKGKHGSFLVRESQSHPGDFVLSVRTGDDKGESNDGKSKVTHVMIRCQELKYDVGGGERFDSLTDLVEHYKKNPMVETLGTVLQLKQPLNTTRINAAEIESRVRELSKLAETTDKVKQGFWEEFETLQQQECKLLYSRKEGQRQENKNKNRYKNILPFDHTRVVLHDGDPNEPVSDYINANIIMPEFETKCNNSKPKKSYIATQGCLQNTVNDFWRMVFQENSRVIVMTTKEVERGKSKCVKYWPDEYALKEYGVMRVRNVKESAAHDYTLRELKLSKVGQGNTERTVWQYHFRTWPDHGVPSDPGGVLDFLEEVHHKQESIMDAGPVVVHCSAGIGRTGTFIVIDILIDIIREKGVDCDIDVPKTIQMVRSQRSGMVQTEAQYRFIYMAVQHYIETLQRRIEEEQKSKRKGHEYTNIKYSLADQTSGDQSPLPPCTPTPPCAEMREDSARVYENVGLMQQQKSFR

[7] = molecular target: Tyrosine-protein phosphatase non-receptor type 5 (Homo sapiens, UniProt P54829); experiment: STEP phosphatase inhibitors, confirmation, biochemical, fluorescence intensity, uHTS hits (AID 602372); format: functional; details: read-out: IC50_Mean
Sequence of Tyrosine-protein phosphatase non-receptor type 5 (P54829 whole entry): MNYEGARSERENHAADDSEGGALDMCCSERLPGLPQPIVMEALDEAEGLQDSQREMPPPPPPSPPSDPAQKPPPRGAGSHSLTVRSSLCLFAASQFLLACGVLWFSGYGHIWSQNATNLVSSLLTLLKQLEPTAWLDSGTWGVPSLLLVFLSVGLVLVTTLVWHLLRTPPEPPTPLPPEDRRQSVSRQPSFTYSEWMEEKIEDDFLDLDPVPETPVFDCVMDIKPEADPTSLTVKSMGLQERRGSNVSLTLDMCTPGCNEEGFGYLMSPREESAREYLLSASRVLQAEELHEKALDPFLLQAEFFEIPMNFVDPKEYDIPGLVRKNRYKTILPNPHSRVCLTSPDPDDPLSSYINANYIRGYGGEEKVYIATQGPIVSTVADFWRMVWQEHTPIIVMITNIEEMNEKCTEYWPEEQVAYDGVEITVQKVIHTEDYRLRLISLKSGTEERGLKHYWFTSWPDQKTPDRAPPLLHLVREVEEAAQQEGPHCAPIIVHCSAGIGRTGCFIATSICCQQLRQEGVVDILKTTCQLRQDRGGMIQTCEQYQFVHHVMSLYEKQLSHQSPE

[8] = molecular target: Dual specificity protein phosphatase 3 (Homo sapiens, UniProt P51452); experiment: VHR phosphatase inhibition, dose response, selectivity assay for STEP inhibitor project, biochemical (AID 602374); format: functional; details: read-out: IC50_Mean
Sequence of Dual specificity protein phosphatase 3 (P51452 whole entry): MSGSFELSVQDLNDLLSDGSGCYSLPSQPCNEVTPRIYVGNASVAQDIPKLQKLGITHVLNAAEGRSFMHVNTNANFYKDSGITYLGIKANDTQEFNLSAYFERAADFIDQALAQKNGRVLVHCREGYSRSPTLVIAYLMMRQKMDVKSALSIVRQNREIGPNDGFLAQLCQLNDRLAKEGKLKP

[9] = molecular target: DNA repair and recombination protein RAD54-like (Homo sapiens, UniProt Q92698); experiment: inhibitors of human RAD54 branch migration, confirmation, biochemical, fluorescence, cherry-picked samples, dose series (AID 651657); format: functional
Sequence of DNA repair and recombination protein RAD54-like (Q92698 whole entry): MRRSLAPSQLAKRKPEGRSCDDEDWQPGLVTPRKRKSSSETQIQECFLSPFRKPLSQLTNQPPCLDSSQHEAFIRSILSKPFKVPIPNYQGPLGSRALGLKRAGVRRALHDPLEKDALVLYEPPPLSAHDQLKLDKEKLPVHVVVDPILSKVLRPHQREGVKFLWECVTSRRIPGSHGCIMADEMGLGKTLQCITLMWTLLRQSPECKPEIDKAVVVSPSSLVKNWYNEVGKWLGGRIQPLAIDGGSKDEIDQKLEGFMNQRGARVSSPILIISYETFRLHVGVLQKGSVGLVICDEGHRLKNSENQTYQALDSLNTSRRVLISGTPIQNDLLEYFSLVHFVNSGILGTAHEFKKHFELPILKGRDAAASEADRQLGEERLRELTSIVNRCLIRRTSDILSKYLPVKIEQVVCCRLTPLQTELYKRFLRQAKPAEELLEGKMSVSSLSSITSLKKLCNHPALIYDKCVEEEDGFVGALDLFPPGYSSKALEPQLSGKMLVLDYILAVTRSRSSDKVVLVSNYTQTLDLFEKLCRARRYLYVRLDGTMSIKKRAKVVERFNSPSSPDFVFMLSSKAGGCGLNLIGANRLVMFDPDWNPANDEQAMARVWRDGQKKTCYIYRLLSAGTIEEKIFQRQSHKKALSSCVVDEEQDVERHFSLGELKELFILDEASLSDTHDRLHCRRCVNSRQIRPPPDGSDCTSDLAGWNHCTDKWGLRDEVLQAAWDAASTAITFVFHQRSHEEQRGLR

[10] = molecular target: Adenosylmethionine-8-amino-7-oxononanoate aminotransferase (Mycobacterium tuberculosis, UniProt P9WQ81); experiment: Mycobacterium tuberculosis BioA enzyme inhibitor Measured in Biochemical System Using Plate Reader - 2163-02_Inhibitor_Dose_CherryPick_Activity.; format: functional, Mycobacterium tuberculosis UT205
Sequence of Adenosylmethionine-8-amino-7-oxononanoate aminotransferase (P9WQ81 whole entry): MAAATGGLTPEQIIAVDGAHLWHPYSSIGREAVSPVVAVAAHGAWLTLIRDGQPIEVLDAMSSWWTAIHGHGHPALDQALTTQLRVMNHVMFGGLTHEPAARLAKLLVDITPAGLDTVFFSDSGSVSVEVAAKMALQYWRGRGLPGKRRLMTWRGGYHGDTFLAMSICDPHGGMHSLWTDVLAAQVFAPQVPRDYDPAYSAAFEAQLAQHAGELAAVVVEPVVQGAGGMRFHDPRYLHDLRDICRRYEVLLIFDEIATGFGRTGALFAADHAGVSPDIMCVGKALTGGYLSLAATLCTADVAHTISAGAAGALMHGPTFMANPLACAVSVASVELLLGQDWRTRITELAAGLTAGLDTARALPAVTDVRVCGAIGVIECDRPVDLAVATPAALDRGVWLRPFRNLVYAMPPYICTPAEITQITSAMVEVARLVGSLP

[11] = molecular target: T3, Replicative DNA helicase DnaB (Mycobacterium tuberculosis, UniProt P9WMR3); experiment: DnaB intein splicing inhibitors, dose response, biochemical, cell-free fluorescence (AID 449749); format: functional
T3 sequence (P9WMR3 whole entry): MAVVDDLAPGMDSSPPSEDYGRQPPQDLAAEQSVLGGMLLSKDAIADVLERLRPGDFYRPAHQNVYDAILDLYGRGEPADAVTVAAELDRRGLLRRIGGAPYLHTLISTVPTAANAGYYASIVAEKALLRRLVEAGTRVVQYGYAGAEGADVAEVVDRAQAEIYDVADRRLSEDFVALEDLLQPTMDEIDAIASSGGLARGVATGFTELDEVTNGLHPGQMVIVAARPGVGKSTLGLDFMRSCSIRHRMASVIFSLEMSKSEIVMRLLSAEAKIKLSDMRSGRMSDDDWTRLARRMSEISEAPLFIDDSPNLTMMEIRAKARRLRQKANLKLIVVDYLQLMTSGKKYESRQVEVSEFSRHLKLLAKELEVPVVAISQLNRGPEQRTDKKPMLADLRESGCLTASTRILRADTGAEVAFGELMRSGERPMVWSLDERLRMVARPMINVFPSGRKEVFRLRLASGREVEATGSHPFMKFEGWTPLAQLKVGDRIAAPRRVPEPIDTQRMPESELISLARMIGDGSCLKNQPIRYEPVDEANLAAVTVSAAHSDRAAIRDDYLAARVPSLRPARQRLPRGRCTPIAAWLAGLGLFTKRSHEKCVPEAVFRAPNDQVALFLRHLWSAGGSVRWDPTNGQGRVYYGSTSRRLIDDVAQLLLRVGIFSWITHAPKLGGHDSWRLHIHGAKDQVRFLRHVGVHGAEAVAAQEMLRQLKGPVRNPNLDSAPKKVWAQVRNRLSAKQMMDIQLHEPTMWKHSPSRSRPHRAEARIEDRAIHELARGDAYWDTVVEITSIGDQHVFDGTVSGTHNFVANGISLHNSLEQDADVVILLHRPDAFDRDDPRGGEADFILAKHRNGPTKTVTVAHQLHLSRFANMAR

[12] = molecular target: T4, Apoptotic protease-activating factor 1 (Homo sapiens, UniProt O14727); format: functional
T4 sequence (O14727 whole entry): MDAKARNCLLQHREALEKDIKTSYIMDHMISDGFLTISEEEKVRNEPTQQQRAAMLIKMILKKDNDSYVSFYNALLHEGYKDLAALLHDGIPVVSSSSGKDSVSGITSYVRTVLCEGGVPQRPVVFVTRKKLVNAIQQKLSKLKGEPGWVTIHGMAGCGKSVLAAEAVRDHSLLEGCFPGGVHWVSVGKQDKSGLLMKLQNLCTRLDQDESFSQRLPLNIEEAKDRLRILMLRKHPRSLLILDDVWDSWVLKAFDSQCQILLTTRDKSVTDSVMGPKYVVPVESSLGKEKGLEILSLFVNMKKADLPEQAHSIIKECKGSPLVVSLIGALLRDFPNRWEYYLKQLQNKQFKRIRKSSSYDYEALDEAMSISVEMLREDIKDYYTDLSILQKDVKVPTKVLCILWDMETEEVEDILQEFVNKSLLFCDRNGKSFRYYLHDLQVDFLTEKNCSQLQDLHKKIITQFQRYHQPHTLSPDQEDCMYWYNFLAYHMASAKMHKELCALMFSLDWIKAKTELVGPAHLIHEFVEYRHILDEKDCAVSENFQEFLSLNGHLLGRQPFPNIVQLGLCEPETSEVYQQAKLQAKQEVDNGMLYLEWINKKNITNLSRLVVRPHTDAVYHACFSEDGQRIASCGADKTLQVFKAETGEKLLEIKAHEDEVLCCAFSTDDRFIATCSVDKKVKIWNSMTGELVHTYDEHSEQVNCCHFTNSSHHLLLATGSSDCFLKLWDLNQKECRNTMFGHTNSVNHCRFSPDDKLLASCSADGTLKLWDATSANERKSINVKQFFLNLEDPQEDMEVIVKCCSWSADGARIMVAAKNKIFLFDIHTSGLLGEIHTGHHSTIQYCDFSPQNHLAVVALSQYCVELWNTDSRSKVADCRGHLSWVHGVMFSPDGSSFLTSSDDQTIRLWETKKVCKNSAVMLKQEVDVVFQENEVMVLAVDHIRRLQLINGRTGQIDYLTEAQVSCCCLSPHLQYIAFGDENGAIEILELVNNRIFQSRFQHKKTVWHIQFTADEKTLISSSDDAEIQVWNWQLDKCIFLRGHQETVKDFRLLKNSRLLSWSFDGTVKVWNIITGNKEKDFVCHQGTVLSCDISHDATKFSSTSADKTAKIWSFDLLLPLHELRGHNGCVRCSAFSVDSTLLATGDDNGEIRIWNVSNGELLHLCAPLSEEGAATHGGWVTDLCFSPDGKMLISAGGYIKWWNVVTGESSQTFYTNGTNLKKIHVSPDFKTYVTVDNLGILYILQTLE

[13] = molecular target: T5, Protein RecA (Mycobacterium tuberculosis, UniProt P9WHJ3); experiment: Fluorescence Cell-Free Homogeneous Dose Retest to Identify Inhibitors of RecA-Intein Splicing Activity. [Related pubchem assays (depositor defined):AID2097, AID2223, AID489010, AID492950]; format: functional
T5 sequence (P9WHJ3 whole entry): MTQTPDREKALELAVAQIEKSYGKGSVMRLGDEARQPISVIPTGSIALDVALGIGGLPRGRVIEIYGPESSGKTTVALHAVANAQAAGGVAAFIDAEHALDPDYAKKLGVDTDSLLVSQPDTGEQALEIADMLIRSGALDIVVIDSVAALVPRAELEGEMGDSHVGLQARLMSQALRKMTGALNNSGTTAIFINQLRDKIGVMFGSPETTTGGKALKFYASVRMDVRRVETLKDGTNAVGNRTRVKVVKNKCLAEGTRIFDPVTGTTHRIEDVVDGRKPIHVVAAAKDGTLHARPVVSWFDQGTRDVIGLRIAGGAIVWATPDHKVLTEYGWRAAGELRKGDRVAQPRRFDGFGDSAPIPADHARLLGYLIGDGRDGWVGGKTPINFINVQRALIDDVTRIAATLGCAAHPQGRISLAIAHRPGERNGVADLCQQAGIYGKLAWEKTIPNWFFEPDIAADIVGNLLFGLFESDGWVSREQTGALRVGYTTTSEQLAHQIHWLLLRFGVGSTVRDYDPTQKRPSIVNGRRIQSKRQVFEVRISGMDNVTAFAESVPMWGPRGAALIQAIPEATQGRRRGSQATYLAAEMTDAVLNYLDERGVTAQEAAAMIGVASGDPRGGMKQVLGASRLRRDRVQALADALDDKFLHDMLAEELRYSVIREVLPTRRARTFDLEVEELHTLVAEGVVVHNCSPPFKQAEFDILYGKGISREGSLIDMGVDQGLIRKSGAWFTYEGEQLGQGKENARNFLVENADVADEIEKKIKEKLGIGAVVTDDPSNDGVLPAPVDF

Sequence of Nonstructural protein 1 (Q194T2 whole entry): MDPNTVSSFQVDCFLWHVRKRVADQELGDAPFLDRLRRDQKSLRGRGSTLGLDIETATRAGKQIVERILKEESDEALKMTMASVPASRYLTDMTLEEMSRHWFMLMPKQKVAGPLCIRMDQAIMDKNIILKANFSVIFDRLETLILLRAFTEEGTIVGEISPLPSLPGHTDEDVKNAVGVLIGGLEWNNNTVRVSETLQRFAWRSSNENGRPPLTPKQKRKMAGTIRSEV

SMILES: Cc1ccc(NC(=O)CCCCCC2NC(=O)NC2C)cc1 (stereo unspecified)
- IC50 [1]: 1060 nM (active)
- IC50 [2]: 14.5 nM (active)
- AC50 [3]: 358 nM (active)

SMILES: N#Cc1nc(Cc2cccc3ccccc23)oc1NCCCN1CCOCC1
- IC50 [4]: 3800 nM (active)
- IC50 [5]: 1580 nM (active)

SMILES: COc1ccc(NC(=O)c2cc(=O)c3ccccc3o2)cc1Cl
- IC50 [6]: 2820 nM (active)
- IC50 [7]: > 80000 nM (inactive)
- IC50 [8]: 4600 nM (active)

SMILES: CCN1CCN(c2cc(C)c3cc(NC(S)=NCCN(C)C)ccc3n2)CC1
- AC50 [9]: 24300 nM (active)

SMILES: O=C(Nc1cccnc1)c1cc2nc(C3CC3)cc(C(F)(F)F)n2n1
- AC50 [10]: 144 nM (active)

SMILES: CCOC(=O)c1ccc(N2C(=O)c3[nH]nc(C)c3C2c2ccc(OC)c(OC)c2)cc1 (stereo unspecified)
- AC50 [10]: 128 nM (active)

SMILES: CNc1nc(SC)nc2ccsc12
- IC50 [4]: 743 nM (active)
- IC50 [5]: 1500 nM (active)

SMILES: COc1ccc(S(=O)(=O)/N=C2\C=C(NS(=O)(=O)c3ccccc3)C(=O)c3ccccc32)cc1
- AC50 [11]: 1890 nM (active)
- IC50 [12]: 16600 nM (active)
- EC50 [13]: 1580 nM (active)
